Assay results from ChEMBL document CHEMBL3813683, “Design, synthesis and anti-cancer activity evaluation of podophyllotoxin-norcantharidin hybrid drugs” (Bioorg Med Chem Lett, 2016).

Tested on: MCF7
Assay: Cytotoxicity against human MCF7 cells after 36 hrs by MTT assay
Type: functional, cell-based
Settings: MCF7, 36 h
In the case of `COc1cc(C2c3cc4c(cc3[C@H](OC(=O)[C@H](C)N3C(=O)C5CCCCC5C3=O)[C@H]3COC(=O)[C@H]23)OCO4)cc(OC)c1OC` (stereo partly specified), the IC50 is reported as 4.59 µM. For `COc1cc(C2c3cc4c(cc3[C@H](OC(=O)C(Cc3ccccc3)N3C(=O)C5CCCCC5C3=O)[C@H]3COC(=O)[C@H]23)OCO4)cc(OC)c1OC` (stereo partly specified), the IC50 was 1.17 µM. `COc1cc(C2c3cc4c(cc3[C@H](OC(=O)[C@@H](C)N3C(=O)c5ccccc5C3=O)[C@H]3COC(=O)[C@H]23)OCO4)cc(OC)c1OC` (stereo partly specified) gave an IC50 of 8.29 µM. For `COc1cc(C2c3cc4c(cc3[C@H](OC(=O)[C@H](C)N3C(=O)c5ccccc5C3=O)[C@H]3COC(=O)[C@H]23)OCO4)cc(OC)c1OC` (stereo partly specified), the IC50 was 18.3 µM. For `COc1cc(C2c3cc4c(cc3[C@H](OC(=O)[C@@H](C)N3C(=O)C5CCCCC5C3=O)[C@H]3COC(=O)[C@H]23)OCO4)cc(OC)c1OC` (stereo partly specified), the IC50 was 2.51 µM. Work on `COc1cc(C2c3cc4c(cc3[C@H](OC(=O)[C@H](Cc3ccccc3)N3C(=O)c5ccccc5C3=O)[C@H]3COC(=O)[C@H]23)OCO4)cc(OC)c1OC` (stereo partly specified) yielded an IC50 of 10.1 µM. For `COc1cc(C2c3cc4c(cc3[C@H](OC(=O)C(Cc3ccccc3)N3C(=O)c5ccccc5C3=O)[C@H]3COC(=O)[C@H]23)OCO4)cc(OC)c1OC` (stereo partly specified), the IC50 was 6.41 µM. `COc1cc(C2c3cc4c(cc3[C@H](OC(=O)C(C)N3C(=O)c5ccccc5C3=O)[C@H]3COC(=O)[C@H]23)OCO4)cc(OC)c1OC` (stereo partly specified) gave an IC50 of 16.8 µM. In the case of `COc1cc(C2c3cc4c(cc3[C@H](OC(=O)[C@@H](Cc3ccccc3)N3C(=O)C5C6CCC(O6)C5C3=O)[C@H]3COC(=O)[C@H]23)OCO4)cc(OC)c1OC` (stereo partly specified), the IC50 is reported as 2.75 µM.

Tested on: A549
Assay: Cytotoxicity against human A549 cells after 36 hrs by MTT assay
Type: functional, cell-based
Settings: A549, 36 h
In the case of `COc1cc(C2c3cc4c(cc3[C@H](OC(=O)[C@H](C)N3C(=O)C5CCCCC5C3=O)[C@H]3COC(=O)[C@H]23)OCO4)cc(OC)c1OC` (stereo partly specified), the IC50 is reported as 2.44 µM. With `COc1cc(C2c3cc4c(cc3[C@H](OC(=O)C(Cc3ccccc3)N3C(=O)C5CCCCC5C3=O)[C@H]3COC(=O)[C@H]23)OCO4)cc(OC)c1OC` (stereo partly specified) the IC50 was 1.72 µM. Work on `COc1cc(C2c3cc4c(cc3[C@H](OC(=O)[C@@H](C)N3C(=O)c5ccccc5C3=O)[C@H]3COC(=O)[C@H]23)OCO4)cc(OC)c1OC` (stereo partly specified) yielded an IC50 of 8.08 µM. Compound `COc1cc(C2c3cc4c(cc3[C@H](OC(=O)[C@H](C)N3C(=O)c5ccccc5C3=O)[C@H]3COC(=O)[C@H]23)OCO4)cc(OC)c1OC` (stereo partly specified) has an IC50 of 5.89 µM. Compound `COc1cc(C2c3cc4c(cc3[C@H](OC(=O)[C@@H](C)N3C(=O)C5CCCCC5C3=O)[C@H]3COC(=O)[C@H]23)OCO4)cc(OC)c1OC` (stereo partly specified) has an IC50 of 2.11 µM. With `COc1cc(C2c3cc4c(cc3[C@H](OC(=O)[C@H](Cc3ccccc3)N3C(=O)c5ccccc5C3=O)[C@H]3COC(=O)[C@H]23)OCO4)cc(OC)c1OC` (stereo partly specified) the IC50 was 8.11 µM. `COc1cc(C2c3cc4c(cc3[C@H](OC(=O)C(Cc3ccccc3)N3C(=O)c5ccccc5C3=O)[C@H]3COC(=O)[C@H]23)OCO4)cc(OC)c1OC` (stereo partly specified) gave an IC50 of 4.16 µM. Work on `COc1cc(C2c3cc4c(cc3[C@H](OC(=O)C(C)N3C(=O)c5ccccc5C3=O)[C@H]3COC(=O)[C@H]23)OCO4)cc(OC)c1OC` (stereo partly specified) yielded an IC50 of 5.37 µM. With `COc1cc(C2c3cc4c(cc3[C@H](OC(=O)[C@@H](Cc3ccccc3)N3C(=O)C5C6CCC(O6)C5C3=O)[C@H]3COC(=O)[C@H]23)OCO4)cc(OC)c1OC` (stereo partly specified) the IC50 was 4.32 µM.

Tested on: HeLa
Assay: Cytotoxicity against human HeLa cells after 36 hrs by MTT assay
Type: functional, cell-based
Settings: not given
Work on `COc1cc(C2c3cc4c(cc3[C@H](OC(=O)[C@H](C)N3C(=O)C5CCCCC5C3=O)[C@H]3COC(=O)[C@H]23)OCO4)cc(OC)c1OC` (stereo partly specified) yielded an IC50 of 5.81 µM. For `COc1cc(C2c3cc4c(cc3[C@H](OC(=O)C(Cc3ccccc3)N3C(=O)C5CCCCC5C3=O)[C@H]3COC(=O)[C@H]23)OCO4)cc(OC)c1OC` (stereo partly specified), the IC50 was 2.22 µM. With `COc1cc(C2c3cc4c(cc3[C@H](OC(=O)[C@@H](C)N3C(=O)c5ccccc5C3=O)[C@H]3COC(=O)[C@H]23)OCO4)cc(OC)c1OC` (stereo partly specified) the IC50 was 11.8 µM. Work on `COc1cc(C2c3cc4c(cc3[C@H](OC(=O)[C@H](C)N3C(=O)c5ccccc5C3=O)[C@H]3COC(=O)[C@H]23)OCO4)cc(OC)c1OC` (stereo partly specified) yielded an IC50 of 19 µM. `COc1cc(C2c3cc4c(cc3[C@H](OC(=O)[C@@H](C)N3C(=O)C5CCCCC5C3=O)[C@H]3COC(=O)[C@H]23)OCO4)cc(OC)c1OC` (stereo partly specified) showed an IC50 of 2.15 µM. Compound `COc1cc(C2c3cc4c(cc3[C@H](OC(=O)[C@H](Cc3ccccc3)N3C(=O)c5ccccc5C3=O)[C@H]3COC(=O)[C@H]23)OCO4)cc(OC)c1OC` (stereo partly specified) has an IC50 of 12.5 µM. `COc1cc(C2c3cc4c(cc3[C@H](OC(=O)C(Cc3ccccc3)N3C(=O)c5ccccc5C3=O)[C@H]3COC(=O)[C@H]23)OCO4)cc(OC)c1OC` (stereo partly specified) gave an IC50 of 7.12 µM. In the case of `COc1cc(C2c3cc4c(cc3[C@H](OC(=O)C(C)N3C(=O)c5ccccc5C3=O)[C@H]3COC(=O)[C@H]23)OCO4)cc(OC)c1OC` (stereo partly specified), the IC50 is reported as 17.2 µM. Compound `COc1cc(C2c3cc4c(cc3[C@H](OC(=O)[C@@H](Cc3ccccc3)N3C(=O)C5C6CCC(O6)C5C3=O)[C@H]3COC(=O)[C@H]23)OCO4)cc(OC)c1OC` (stereo partly specified) has an IC50 of 3.09 µM.

Tested on: not listed separately
Assay: Cytotoxicity against HEK293T cells after 36 hrs by MTT assay
Type: cell-based
Settings: Homo sapiens, HEK-293T
In the case of `COc1cc(C2c3cc4c(cc3[C@H](OC(=O)[C@H](C)N3C(=O)C5CCCCC5C3=O)[C@H]3COC(=O)[C@H]23)OCO4)cc(OC)c1OC` (stereo partly specified), the IC50 is reported as 74.2 µM. `COc1cc(C2c3cc4c(cc3[C@H](OC(=O)C(Cc3ccccc3)N3C(=O)C5CCCCC5C3=O)[C@H]3COC(=O)[C@H]23)OCO4)cc(OC)c1OC` (stereo partly specified) showed an IC50 of 61.5 µM. Compound `COc1cc(C2c3cc4c(cc3[C@H](OC(=O)[C@@H](C)N3C(=O)c5ccccc5C3=O)[C@H]3COC(=O)[C@H]23)OCO4)cc(OC)c1OC` (stereo partly specified) has an IC50 of 59.3 µM. `COc1cc(C2c3cc4c(cc3[C@H](OC(=O)[C@H](C)N3C(=O)c5ccccc5C3=O)[C@H]3COC(=O)[C@H]23)OCO4)cc(OC)c1OC` (stereo partly specified) gave an IC50 of 88.6 µM. Work on `COc1cc(C2c3cc4c(cc3[C@H](OC(=O)[C@@H](C)N3C(=O)C5CCCCC5C3=O)[C@H]3COC(=O)[C@H]23)OCO4)cc(OC)c1OC` (stereo partly specified) yielded an IC50 of 54.5 µM. `COc1cc(C2c3cc4c(cc3[C@H](OC(=O)[C@H](Cc3ccccc3)N3C(=O)c5ccccc5C3=O)[C@H]3COC(=O)[C@H]23)OCO4)cc(OC)c1OC` (stereo partly specified) showed an IC50 of 54.8 µM. In the case of `COc1cc(C2c3cc4c(cc3[C@H](OC(=O)C(Cc3ccccc3)N3C(=O)c5ccccc5C3=O)[C@H]3COC(=O)[C@H]23)OCO4)cc(OC)c1OC` (stereo partly specified), the IC50 is reported as 65.9 µM. Work on `COc1cc(C2c3cc4c(cc3[C@H](OC(=O)C(C)N3C(=O)c5ccccc5C3=O)[C@H]3COC(=O)[C@H]23)OCO4)cc(OC)c1OC` (stereo partly specified) yielded an IC50 of 51.3 µM. Work on `COc1cc(C2c3cc4c(cc3[C@H](OC(=O)[C@@H](Cc3ccccc3)N3C(=O)C5C6CCC(O6)C5C3=O)[C@H]3COC(=O)[C@H]23)OCO4)cc(OC)c1OC` (stereo partly specified) yielded an IC50 of 67.7 µM.
